Common to all, as to assay type: physicochemical
The nature of series [1]: Solubility in water of complex of Example 9 vs non-complexed paroxetine base. Particulars: thermodynamic from solid; deionised water, room temperature, 4 hours stirring, spectrophotometry at 293 nm; read-out: solubility (content of paroxetine base in the solution). The method, then: 5 g of the product of Example 9 were added to 10 ml of deionised water and kept under stirring for 4 hours at room temperature.
The suspension was then filtered through a cellulose acetate filter in order to remove the undissolved product.
The solution was analysed by 293 nm spectrophotometry against a standard solution of paroxetine base.

A short description of series [2]: Stability at 60° C., visual examination. How it is done: About 200 mg of paroxetine base and 1 g of the complex of Example 9 (corresponding to about 180 mg of paroxetine base) have each been introduced in a neutral white glass containers and stored, opened, in an oven at 60° C.
The product in the two containers has been visually examined after 48 hours of storage.

A short description of series [3]: Solubility in water of complexes of Examples 1-5 vs non-complexed paroxetine HCl. The settings on record: thermodynamic from solid; deionized water, 25° C., 24 hours stirring, spectrophotometry at 295 nm. The method, then: A solubility test was carried out on an amount of the complexes of Examples 1 to 5 corresponding 500 mg of paroxetine HCl and, as a comparison, on 500 mg of non-complexed paroxetine HCl.
Each sample was introduced into a container containing 5 ml of deionized water. The containers, closed with a plug were then set under stirring in a thermostatic bath at 25° C. for 24 hours.
The obtained suspensions were then filtered through a cellulose acetate filter and analysed by spectrophotometry at 295 nm, in comparison with a standard solution of paroxetine.
The results obtained are reported in FIG. 1 wherein the solubility of paroxetine HCl (in mg/ml) is represented as a function of the molar ratio between β-cyclodextrin and paroxetine HCl.

Values after ≈ are worked out from the molar mass of the structure shown. Where a name gives a salt, the structure may show the parent alone.

One may read the solubility as the dissolved amount per volume that the medium holds. With `Fc1ccc([C@@H]2CCNC[C@H]2COc2ccc3c(c2)OCO3)cc1` [Paroxetine base, Paroxetine], the solubility at 4 h in series [1] stood at 300 µg/mL (≈ 911 µM). Moreover, the visual appearance entry in series [2] (48 h 60° C., open glass container) is “Brown liquid”; in series [2] (Initial), “Straw-Yellow liquid”.

`Fc1ccc([C@@H]2CCNC[C@H]2COc2ccc3c(c2)OCO3)cc1` [non-complexed paroxetine HCl, paroxetine HCl]: in series [3], the solubility at 24 h is 5000 µg/mL.

The record behind these values is patent publication US6984632B1, “Complexes of paroxetine, with cyclodextrins or cyclodextrin derivatives” (Italfarmaco S.p.A., priority 1999, dated 2006).
